Tests used:
[1] = test system: IL-6; experiment: LPS-induced IL-6 production in BV2 cells; format: cell-based
Procedure: Suppressing effects of chemical 01 in BV2 cell lines on production of IL-1β, IL-6 or TNF-α were evaluated. BV2 cells were exposed to 1 ug/ml LPS (inflammation-inducing material) with inclusion of chemical 01 at indicated doses. After 4 hours, supernatant were collected and concentrations of TNF-a were evaluated. In addition, BV2 cells were treated by the same method, and 24 hours later, supernatant were collected and concentrations of IL-1β and IL-6 were evaluated (mean±SEM, n=3). BV2 cells treated with LPS only were used as control.

[2] = test system: G93A mouse; experiment: motor performance, onset and survival in G93A mouse (chemical 01); format: in vivo
Procedure: G93A (Glycine Alanine) mouse having similar pathophysiological characteristics with ALS human patient was used to evaluate therapeutic effect of drug in ALS (amyotrophic lateral sclerosis), one of main degenerative brain diseases. It was analyzed whether treatment with 5 mg/kg/day or 20 mg/kg/day of chemical 01 improved motor performance ability or not.
In PaGE test and Rotarod test, onset and mortality were analyzed for four mice per each group (FIGS. 13C-D). […] In survival ability, G93A mouse fed with chow only, G93A mouse treated with 5 mg/kg/day of chemical 01 and G93A mouse treated with 20 mg/kg/day of chemical 01 survived for 131.57 days, 153.13 days, and 150.73 days, respectively. Treatment with chemical 01 extended survival rate of G93A mouse (FIG. 13D).

With `O=C(O)c1cc(NCCc2ccc(C(F)(F)F)cc2)ccc1O` [chemical 01, 2-Hydroxy-5-[2-(4-trifluoromethyl-phenyl)-ethylamino]-benzoic acid] the “decrease of IL-6 released into media” value ([1]; 100 uM, 1 ug/ml LPS, 24 hours) was roughly 70%, the “IL-6 decrease, in words” value ([1]; 1~100 uM) was “dose-dependent manner” and the survival ([2]; 5 mg/kg/day) was 153.13 days. The onset ([2]; 5 mg/kg/day or 20 mg/kg/day) was 125.67 days, the survival ([2]; 20 mg/kg/day) was 150.73 days and the “motor performance versus control fed with general chow only (Rotarod, PaGE)” value ([2]; 5 or 20 mg/kg/day in chow, from 14 weeks to 17 weeks) was “better motor performance”.
